According to PMC11747885, “Potent inhibitors of the human RNA ligase Rlig1 highlights its role in RNA integrity maintenance under oxidative cellular stress” (Chemical Science, 2025):

What was measured:
Rlig1-AMP [1] = biological target: T1, Rlig1-AMP (Homo sapiens, UniProt Q8N999); experiment: Radioactive RNA ligation assay (hit validation, 10 µM test and IC50 determination); assay type: biochemical; settings: for inhibition in radioactive ligation assay (hit validation): 10 µM compound, 37 °C, 20 min
T1 construct: made in house; host or cells: E. coli BL21 (DE3), pET15b-Rlig1
T1 sequence (Q8N999 whole entry): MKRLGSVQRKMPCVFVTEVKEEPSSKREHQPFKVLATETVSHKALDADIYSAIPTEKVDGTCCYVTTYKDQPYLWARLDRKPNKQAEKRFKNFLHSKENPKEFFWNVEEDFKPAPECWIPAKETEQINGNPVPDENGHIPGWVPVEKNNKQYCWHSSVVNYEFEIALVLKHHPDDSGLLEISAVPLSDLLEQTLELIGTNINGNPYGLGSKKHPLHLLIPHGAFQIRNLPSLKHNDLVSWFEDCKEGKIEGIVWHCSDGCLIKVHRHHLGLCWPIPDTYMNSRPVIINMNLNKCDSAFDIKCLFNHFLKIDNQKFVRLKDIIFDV

Rlig1-AMP [2] = biological target: T1, Rlig1-AMP; experiment: FRET-based high-throughput screening of inhibitors for Rlig1-AMP; assay type: biochemical; settings: for Raw data [w Enyzm]: with enzyme; for Raw data [w/o Enzym]: without enzyme
[3] = sheet HTS hits, MedChemExpress library
[4] = sheet HTS hits, difference of raw data w/o and w enzyme
[5] = HTS hits, difference of raw data w/o and w enzyme
[6] = HTS hits, MedChemExpress library
[7] = HTS hits, difference of raw data without and with enzyme
[8] = HTS hits, normalized value (npi)
[9] = HTS hits, normalised value of 1-D Distance

Row | Compound | 1-D Distance (Rlig1-AMP [2]; [5]) | Raw data [w Enyzm] (Rlig1-AMP [2]; HTS hits) | Raw data [w/o Enzym] (Rlig1-AMP [2]; HTS hits) | 1-D Distance.npi (Rlig1-AMP [2]; [6]) | 1-D Distance (Rlig1-AMP [2]; [7]) | other results
1 | CN(C)C/C=C/C(=O)Nc1ccc(C(=O)Nc2cccc(Nc3ncc(Cl)c(-c4c[nH]c5ccccc45)n3)c2)cc1.Cl [Compound 2, THZ1 (Hydrochloride), reference compound] |  |  |  |  |  | inhibition in radioactive ligation assay (hit validation) (Rlig1-AMP [1]): above 70%
2 | Cc1cc(-c2cc(O)ccc2Cl)cc2nnc(Nc3ccc(OCCN4CCCC4)cc3)nc12.Cl [Compound 6, reference compound] |  |  |  |  |  | inhibition in radioactive ligation assay (hit validation) (Rlig1-AMP [1]): above 70%
3 | Cn1nc(-c2ccc(C(F)(F)F)cc2)nc2c(=O)n(C)c(=O)nc1-2 [Compound 11, reference compound] |  |  |  |  |  | IC50 (in words) (Rlig1-AMP [1]; concentration-dependent radioactive ligation assay): nanomolar range
4 | CN(C)Cc1ccc(-c2cnn3c(-c4cccc(NC(=O)c5cccc(C(F)(F)F)c5)c4)ccnc23)cc1 [Compound 17, reference compound] |  |  |  |  |  | inhibition in radioactive ligation assay (hit validation) (Rlig1-AMP [1]): above 70%
5 | Cc1cc(Nc2ccc(NC(=O)c3ccc(Nc4cccc5ccccc45)cc3)cc2)nc(N)n1 [Compound 44] |  |  |  |  |  | inhibition of Rlig1-AMP ligation (urea-PAGE) (Rlig1-AMP [1]; 10 μM compound, 500 nM Rlig1-AMP, 20 min 37 °C): inactive
6 | C/C1=C2N=C(/C=C3N=C(/C(C)=C4\[N-]C(C(CC(N)=O)C4(C)CCC(=O)NCC(C)OP(=O)([O-])OC4C(CO)OC(n5cnc6cc(C)c(C)cc65)C4O)C4(C)N=C1C(CCC(N)=O)C4(C)CC(N)=O)C(CCC(N)=O)C\3(C)C)C(CCC(N)=O)C/2(C)CC(N)=O.Cl.[Co+3].[OH-] (stereo not shown) [Hydroxocobalamin (monohydrochloride)] |  |  |  |  |  | 1-D Distance.npi (Rlig1-AMP [2]; [3]): 101.9; 1-D Distance (Rlig1-AMP [2]; [4]): 179; Raw data [w Enyzm] (Rlig1-AMP [2]; sheet HTS hits): 5221; Raw data [w/o Enzym] (Rlig1-AMP [2]; sheet HTS hits): 5042
7 | COc1c2c3c4c(c(OC)c(=O)c5c(O)cc(OC)c(c6c(OC)cc(O)c(c1=O)c63)c54)[C@@H](C(C)=O)[C@@](C)(O)C2 [Hypocrellin A] | 1179 | 1866 | 3045 |  |  | 
8 | CC(=O)[C@]1(O)Cc2c(O)c3c(c(O)c2[C@@H](O[C@H]2C[C@H](N)[C@H](O)[C@H](C)O2)C1)C(=O)c1ccccc1C3=O.Cl [Idarubicin (hydrochloride)] |  | 5823 | 7545 | 74.8199 | 1722 | 
9 | CC(C)c1nc2c([nH]1)-c1ccccc1C(=O)C2=O [KL1333] | 578 | 12041 | 12619 |  |  | 1-D Distance.npi (Rlig1-AMP [2]; [8]): 96.7085
10 | N[C@@H](CS)C(=O)O [L-Cysteine] | 1124 | 9158 | 10282 |  |  | 
11 | N#Cc1cc(NS(=O)(=O)c2ccc(N)cc2)ccc1Oc1ccc(Cl)c(C(F)(F)F)c1 [Lp-PLA2-IN-3] |  | 9448 |  | 92.9896 | 555 | 
12 | CN(C)CCOC(=O)COc1ccc(Cl)cc1.Cl [Meclofenoxate (hydrochloride)] |  | 9480 | 11312 | 72.0073 | 1832 | 
13 | COS(=O)(=O)[O-].COc1cccc2c1nc1ccccc1[n+]2C [Methoxy-PMS] | 2097 | 4514 | 6611 |  |  | 1-D Distance.npi (Rlig1-AMP [2]; [8]): 71.83
14 | COC(=O)Cc1ccc(C(C)(C)C)cc1 [Methyl p-tert-butylphenylacetate] | 2067 | 8807 | 10874 |  |  | 1-D Distance.npi (Rlig1-AMP [2]; [9]): 70.3748
15 | C/C1=C2/[N-][C@H]([C@H](CC(N)=O)[C@@]2(C)CCC(=O)NC[C@H](C)OP(=O)([O-])O[C@H]2[C@@H](O)[C@@H](n3cnc4cc(C)c(C)cc43)O[C@@H]2CO)[C@]2(C)N=C(/C(C)=C3N=C(/C=C4N=C1[C@@H](CCC(N)=O)C\4(C)C)[C@@H](CCC(N)=O)[C@]\3(C)CC(N)=O)[C@@H](CCC(N)=O)[C@]2(C)CC(N)=O.[CH3-].[Co+3] [Methylcobalamin] |  |  |  |  |  | 1-D Distance.npi (Rlig1-AMP [2]; [3]): 89.4559; 1-D Distance (Rlig1-AMP [2]; [4]): 977; Raw data [w Enyzm] (Rlig1-AMP [2]; sheet HTS hits): 4140; Raw data [w/o Enzym] (Rlig1-AMP [2]; sheet HTS hits): 5117
16 | CN(C)c1ccc2nc3ccc(=[N+](C)C)cc-3sc2c1.O.O.O.[Cl-] [Methylene blue (trihydrate)] |  | 6070 |  | 83.8926 | 1051 | 
17 | O=C(NCCCCCCCCCC[P+](c1ccccc1)(c1ccccc1)c1ccccc1)c1nn(Cc2ccc(Cl)cc2Cl)c2ccccc12.[Br-] [Mito-LND] |  | 5993 | 4259 | 74.0964 | 1734 | 
18 | Cl.NC(CO)(CO)CCc1ccc(Sc2cccc(OCc3ccccc3)c2)cc1Cl [Mocravimod (hydrochloride)] |  | 8286 | 8462 | 104.362 | 176 | 
19 | COc1cc(/C=C/C(=O)NCC(O)c2ccc(O)cc2)ccc1O (stereo not shown) [N-Feruloyloctopamine] |  |  |  |  |  | 1-D Distance.npi (Rlig1-AMP [2]; [3]): 70.0499; 1-D Distance (Rlig1-AMP [2]; [4]): 1918; Raw data [w Enyzm] (Rlig1-AMP [2]; sheet HTS hits): 9094; Raw data [w/o Enzym] (Rlig1-AMP [2]; sheet HTS hits): 11012
20 | NC[C@@H]1O[C@H](O[C@H]2[C@@H](O)[C@H](O[C@@H]3[C@@H](O)[C@H](N)C[C@H](N)[C@H]3O[C@H]3O[C@H](CN)[C@@H](O)[C@H](O)[C@H]3N)O[C@@H]2CO)[C@H](N)[C@@H](O)[C@@H]1O.O=S(=O)(O)O [Neomycin (sulfate)] | 482 | 7973 | 8455 |  |  | 1-D Distance.npi (Rlig1-AMP [2]; [9]): 97.3447
